In paper PMC11643962, “Exploring 4,7-Disubstituted Pyrimido[4,5-d]pyrimidines as Antiviral and Anticancer Agents” (Molecules, 2024):

Key:
HCoV-229E = experiment: Antiviral CPE reduction assay, HCoV-229E in HEL299 cells; assay type: cell-based, human coronavirus 229E; conditions: Human coronavirus 229E, HEL 299, MTS, mean ± SD of two or three independent experiments
HCoV-OC43 = experiment: Antiviral CPE reduction assay, HCoV-OC43 in HEL299 cells; assay type: cell-based, human coronavirus OC43; conditions: Betacoronavirus 1, OC43, HEL 299, MTS, mean ± SD of two or three independent experiments
HCoV-NL63 = experiment: Antiviral CPE reduction assay, HCoV-NL63 in Hep3B cells; assay type: cell-based, human coronavirus NL63; conditions: Human coronavirus NL63, MTS, mean ± SD of two or three independent experiments
[1] = tested on: influenza A/H1N1 (A/Ned/378/05); experiment: Antiviral CPE reduction assay, influenza A/H1N1 in MDCK cells; assay type: cell-based, influenza A virus; conditions: Influenza A virus, H1N1; MDCK cells; CPE reduction, MTS; mean ± SD of two or three independent experiments; read-out: Antiviral Activity (EC50) Influenza H1N1
[2] = tested on: influenza A/H3N2 (A/HK/7/87); experiment: Antiviral CPE reduction assay, influenza A/H3N2 in MDCK cells; assay type: cell-based, influenza A virus; conditions: Influenza A virus, H3N2; MDCK cells; CPE reduction, MTS; mean ± SD of two or three independent experiments; read-out: Antiviral Activity (EC50) Influenza H3N2
[3] = tested on: influenza B (B/Ned/537/05); experiment: Antiviral CPE reduction assay, influenza B in MDCK cells; assay type: cell-based, influenza B virus; conditions: Influenza B virus, MDCK, read-out: Antiviral Activity (EC50) Influenza B
[4] = tested on: respiratory syncytial virus A (RSV A Long); experiment: Antiviral CPE reduction assay, RSV A Long in Hep2 cells; assay type: cell-based; conditions: human respiratory syncytial virus, HEp-2; Hep2 cells; CPE reduction, MTS; mean ± SD of two or three independent experiments; read-out: Antiviral Activity (EC50) RSV A Long
[5] = tested on: herpes simplex virus-1 (HSV-1 KOS); experiment: Antiviral CPE reduction assay, HSV-1 KOS in HEL299 cells; assay type: cell-based; conditions: Human alphaherpesvirus 1, HEL 299, MTS, mean ± SD, no unit printed on the supplement page (Table 2 of the same screen is in µM)
[6] = tested on: yellow fever virus (YFV 17D); experiment: microbe, parasite or virus in culture; assay type: cell-based; conditions: Yellow fever virus, Vero C1008, read-out: Antiviral activity (EC50) YFV 17D
Zika virus (ZikV mr766) = experiment: Antiviral CPE reduction assay, Zika virus mr766 in VeroE6 cells; assay type: cell-based; conditions: Zika virus, Vero C1008, MTS, mean ± SD, no unit printed on the supplement page (Table 2 of the same screen is in µM)
[7] = tested on: variety of viruses (HSV-1, influenza viruses, yellow fever virus, Zika virus, RSV, HCoV-229E, HCoV-OC43, HCoV-NL63); assay type: cell-based; conditions: CPE reduction assays, virus panel
in vitro [8] = conditions: human
in vitro [9] = conditions: human; remark: listed apart in the source
in vitro [10] = conditions: dog
in vitro [11] = conditions: human; remark: listed apart in the source
in vitro [12] = conditions: African green monkey
[13] = tested on: HL-60 (acute myeloid leukemia); experiment: MTS proliferation assay, HL-60; conditions: Homo sapiens, HL-60, 72 h, read-out: Anti-Proliferative Activity (IC50) HL-60
[14] = tested on: K-562 (chronic myeloid leukemia); experiment: MTS proliferation assay, K-562; conditions: Homo sapiens, K562, 72 h, read-out: Anti-Proliferative Activity (IC50) K-562
[15] = tested on: Z-138 (non-Hodgkin lymphoma); experiment: MTS proliferation assay, Z-138; conditions: Homo sapiens, Z-138, 72 h, read-out: Anti-Proliferative Activity (IC50) Z-138
LN-229 (glioblastoma) = experiment: MTS proliferation assay, LN-229; conditions: Homo sapiens, LN-229, 72 h, read-out: Anti-Proliferative Activity (IC50) LN-229
[16] = tested on: DND-41 (acute lymphoblastic leukemia); experiment: MTS proliferation assay, DND-41; conditions: Homo sapiens, DND41, 72 h, read-out: Anti-Proliferative Activity (IC50) DND-41
[17] = tested on: Capan-1 (pancreatic adenocarcinoma); experiment: MTS proliferation assay, Capan-1; conditions: Homo sapiens, CAPAN-1, 72 h, read-out: Anti-Proliferative Activity (IC50) Capan-1
[18] = tested on: HCT-116 (colorectal carcinoma); experiment: MTS proliferation assay, HCT-116; conditions: Homo sapiens, HCT-116, 72 h, read-out: Anti-Proliferative Activity (IC50) HCT-116
[19] = tested on: NCI-H460 (lung carcinoma); experiment: MTS proliferation assay, NCI-H460; conditions: Homo sapiens, NCI-H460, 72 h, read-out: Anti-Proliferative Activity (IC50) NCI-H460

| SMILES | EC50 (HCoV-229E) [µM] | EC50 (HCoV-OC43) [µM] | EC50 (HCoV-NL63) [µM] | EC50 [1] [µM] | EC50 [2] [µM] | EC50 [3] [µM] | EC50 [4] [µM] | EC50 [5] [µM] | EC50 [6] [µM] | EC50 (Zika virus (ZikV mr766)) [µM] | melting point [°C] | CC50 (in vitro [10]) [µM] | CC50 (in vitro [12]) [µM] | IC50 [13] [µM] | IC50 [14] [µM] | IC50 [15] [µM] | IC50 (LN-229 (glioblastoma)) [µM] | IC50 [16] [µM] | IC50 [17] [µM] | IC50 [18] [µM] | further results |
| --- | --- | --- | --- | --- | --- | --- | --- | --- | --- | --- | --- | --- | --- | --- | --- | --- | --- | --- | --- | --- | --- |
| c1cc2c(c(Nc3ncnc4nc(NC5CC5)ncc34)c1)CCCC2 [Compound 7c, N^2-cyclopropyl-N^5-(5,6,7,8-tetrahydronaphthalen-1-yl)pyrimido[4,5-d]pyrimidine-2,5-diamine] | > 50 | > 50 | > 50 | > 50 | > 50 | > 50 | > 50 | > 50 | > 50 | > 50 | 189 | > 50 | > 50 | > 100 | > 100 | > 100 | > 100 | > 100 | > 100 | > 100 | antiviral activity (in words) [7]: inactive; CC50 (in vitro [8]): > 50 µM; CC50 (in vitro [9]): > 50 µM; CC50 (in vitro [11]): > 50 µM; IC50 [19]: > 100 µM |
| CN1CCN(c2ncc3c(Nc4cccc5c4CCC5)ncnc3n2)CC1 [Compound 7d, N-(2,3-dihydro-1H-inden-4-yl)-7-(4-methylpiperazin-1-yl)pyrimido[4,5-d]pyrimidin-4-amine] | > 50 | > 50 | > 50 | > 50 | > 50 | > 50 | > 50 | > 50 | > 50 | > 50 | > 250 | > 50 | > 50 | ≥ 71 | 61.3 ± 2.4 | 56.5 ± 1.2 | > 100 | 80.6 ± 10.2 | > 100 | > 100 | antiviral activity (in words) [7]: inactive; CC50 (in vitro [8]): > 50 µM; CC50 (in vitro [9]): > 50 µM; CC50 (in vitro [11]): > 50 µM; IC50 [19]: > 100 µM |
| CCN(CC)CCNc1ncc2c(Nc3cccc4c3CCC4)ncnc2n1 [Compound 7f, N^5-(2,3-dihydro-1H-inden-4-yl)-N^2-[2-(diethylamino)ethyl]pyrimido[4,5-d]pyrimidine-2,5-diamine] | 3.9 ± 2.9 | 37.3 ± 15.1 | > 50 | > 50 | > 50 | > 50 | > 50 | > 50 | > 50 | > 50 | 172.9 | > 50 | > 50 | > 100 | > 100 | > 100 | > 100 | > 100 | > 100 | > 100 | CC50 (in vitro [8]): > 50 µM; CC50 (in vitro [9]): > 50 µM; CC50 (in vitro [11]): > 50 µM; IC50 [19]: > 100 µM |
| c1cc2c(c(Nc3ncnc4nc(NC5CC5)ncc34)c1)CCC2 [Compound 7g, N^2-cyclopropyl-N^5-(2,3-dihydro-1H-inden-4-yl)pyrimido[4,5-d]pyrimidine-2,5-diamine] | ≥ 30.5 | > 50 | > 50 | > 50 | > 50 | > 50 | > 50 | > 50 | > 50 | > 50 | 290 | > 50 | > 50 | > 100 | > 100 | > 100 | > 100 | > 100 | > 100 | > 100 | CC50 (in vitro [8]): > 50 µM; CC50 (in vitro [9]): > 50 µM; CC50 (in vitro [11]): > 50 µM; IC50 [19]: > 100 µM |
| C#Cc1cccc(Nc2ncnc3nc(N4CCN(C)CC4)ncc23)c1 [Compound 7h, N-(3-ethynylphenyl)-7-(4-methylpiperazin-1-yl)pyrimido[4,5-d]pyrimidin-4-amine] | > 50 | > 50 | > 50 | > 50 | > 50 | > 50 | > 50 | > 50 | > 50 | > 50 | 290 | > 50 | > 50 | 79.1 ± 4.6 | 52.3 ± 4.4 | 52.6 ± 1.4 | 97.1 ± 1.5 | 66.5 ± 0.8 | > 100 | > 100 | antiviral activity (in words) [7]: inactive; IC50 [19]: > 100 µM |
| C#Cc1cccc(Nc2ncnc3nc(NC4CC4)ncc23)c1 [Compound 7j, N^2-cyclopropyl-N^5-(3-ethynylphenyl)pyrimido[4,5-d]pyrimidine-2,5-diamine] | > 50 | > 50 | > 50 | > 50 | > 50 | > 50 | > 50 | > 50 | > 50 | > 50 | 296 | > 50 | > 50 | > 100 | > 100 | > 100 | > 100 | > 100 | > 100 | > 100 | CC50 (in vitro [8]): > 50 µM; CC50 (in vitro [9]): > 50 µM; CC50 (in vitro [11]): > 50 µM; IC50 [19]: > 100 µM |
| CCN(CC)CCNc1ncc2c(Nc3cccnc3)ncnc2n1 [Compound 7l, N^2-[2-(diethylamino)ethyl]-N^5-(pyridin-3-yl)pyrimido[4,5-d]pyrimidine-2,5-diamine] | > 50 | > 50 | > 50 | > 50 | > 50 | > 50 | > 50 | > 50 | > 50 | > 50 | 220 to 224 | > 50 | > 50 | > 100 | > 100 | > 100 | > 100 | > 100 | > 100 | > 100 | CC50 (in vitro [8]): > 50 µM; CC50 (in vitro [9]): > 50 µM; CC50 (in vitro [11]): > 50 µM; IC50 [19]: > 100 µM |
| c1cncc(Nc2ncnc3nc(NC4CC4)ncc23)c1 [Compound 7m, N^2-cyclopropyl-N^5-(pyridin-3-yl)pyrimido[4,5-d]pyrimidine-2,5-diamine] | > 50 | > 50 | > 50 | > 50 | > 50 | > 50 | > 50 | > 50 | > 50 | > 50 | 243 | > 50 | > 50 | > 100 | > 100 | > 100 | > 100 | > 100 | > 100 | > 100 | CC50 (in vitro [8]): > 50 µM; CC50 (in vitro [9]): > 50 µM; CC50 (in vitro [11]): > 50 µM; IC50 [19]: > 100 µM |
